Data as given in US20100267561A1, “HERBICIDAL PYRIDAZINONE DERIVATIVES” (priority 2007, published 2010).
Read-outs that look alike come from different tables or passages of the source.

Columns and labels:
Assay type in all cases: in vivo
[1] = system: large crabgrass (Digitaria sanguinalis); assay: Test B pre-/postemergence plant response; conditions: Digitaria sanguinalis, read-out: Plant response rating, Crabgrass, Large; for pest or weed control at 16 g/ha: 16 g ai/ha; for pest or weed control at 31 g/ha: 31 g ai/ha, 100 complete control; for pest or weed control at 62 g/ha: 62 g ai/ha; for pest or weed control at 125 g/ha: 125 g ai/ha
Outline: (§1)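 Visual scoring from 0 (no effect) to 100 (complete control) against untreated controls was done 13 to 15 days after greenhouse treatment. Chemicals were formulated in a surfactant-containing non-phytotoxic solvent and applied to soil preemergence or to 1- to 4-leaf (2-18 cm) plants postemergence.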

[2] = system: woolly cupgrass (Eriochloa villosa); assay: Test B pre-/postemergence plant response; conditions: Eriochloa villosa, read-out: Plant response rating, Cupgrass, Woolly; for pest or weed control at 16 g/ha: 16 g ai/ha; for pest or weed control at 31 g/ha: 31 g ai/ha, 100 complete control; for pest or weed control at 62 g/ha: 62 g ai/ha; for pest or weed control at 125 g/ha: 125 g ai/ha
Outline: as §1

wild oat (Avena fatua) = assay: Test C pre-/postemergence plant response
Outline: (§2)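 Pre- and postemergence treatment, visual 0–100 rating vs controls at 15–25 days.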

[3] = system: green foxtail (Setaria viridis); assay: Test C pre-/postemergence plant response
Outline: as §2

[4] = system: pigweed (Amaranthus retroflexus); assay: Test C pre-/postemergence plant response
Outline: as §2

[5] = system: blackgrass (Alopecurus myosuroides); assay: Test C pre-/postemergence plant response
Outline: as §2

[6] = system: annual bluegrass (Poa annua); assay: Test C pre-/postemergence plant response
Outline: as §2

[7] = system: canarygrass (Phalaris minor); assay: Test C pre-/postemergence plant response
Outline: as §2

[8] = system: spring barley (Hordeum vulgare); assay: Test C pre-/postemergence plant response
Outline: as §2

[9] = system: Italian ryegrass (Lolium multiflorum); assay: Test C pre-/postemergence plant response
Outline: as §2

[10] = system: winter wheat (Triticum aestivum); assay: Test C pre-/postemergence plant response
Outline: as §2

[11] = system: wild mustard (Sinapis arvensis); assay: Test C pre-/postemergence plant response
Outline: as §2

[12] = system: downy bromegrass (Bromus tectorum); assay: Test C pre-/postemergence plant response
Outline: as §2

[13] = post-emergence, Postemergence, scale 0 to 100
[14] = post-emergence, Postemergence, scale 0 to 100, 0 no effect
[15] = pre-emergence, Preemergence, scale 0 to 100 (0 no effect, 100 complete control)
[16] = pre-emergence, Preemergence, 0 to 100 scale, 0 no effect
[17] = pre-emergence, Preemergence, scale 0 to 100
[18] = Postemergence, 8 g ai/ha, scale 0 to 100, 0 no effect, 100 complete control
[19] = Postemergence, 16 g ai/ha, scale 0 to 100, 0 no effect, 100 complete control
[20] = Postemergence, 31 g ai/ha, scale 0 to 100, 0 no effect, 100 complete control
[21] = Postemergence, 62 g ai/ha, scale 0 to 100, 0 no effect, 100 complete control
[22] = Preemergence, 8 g ai/ha, scale 0 to 100 (0 no effect, 100 complete control)
[23] = Preemergence, 16 g ai/ha, scale 0 to 100 (0 no effect, 100 complete control)
[24] = Preemergence, 31 g ai/ha, scale 0 to 100 (0 no effect, 100 complete control)
[25] = Preemergence, 62 g ai/ha, scale 0 to 100, 0 no effect, 100 complete control

SMILES: CCc1cc(-c2ccc(C(F)(F)F)cc2)nn1-c1c(O)cnn(C)c1=O [Compound 11, 4-[5-ethyl-3-[4-(trifluoromethyl)phenyl]-1H-pyrazol-1-yl]-5-hydroxy-2-methyl-3(2H)-pyridazinone]
- pest or weed control at 16 g/ha [1, 13]: 98%
- pest or weed control at 31 g/ha [1, 14]: 100%
- pest or weed control at 62 g/ha [1, 13]: 100%
- pest or weed control at 125 g/ha [1, 13]: 100%
- pest or weed control at 16 g/ha [1, 15]: 90%
- pest or weed control at 31 g/ha [1, 16]: 90%
- pest or weed control at 62 g/ha [1, 17]: 100%
- pest or weed control at 125 g/ha [1, 17]: 100%
- pest or weed control at 16 g/ha [2, 13]: 95%
- pest or weed control at 31 g/ha [2, 14]: 100%
- pest or weed control at 62 g/ha [2, 13]: 100%
- pest or weed control at 125 g/ha [2, 13]: 100%
- pest or weed control at 16 g/ha [2, 15]: 100%
- pest or weed control at 31 g/ha [2, 16]: 100%
- pest or weed control at 62 g/ha [2, 17]: 100%
- pest or weed control at 125 g/ha [2, 17]: 100%
- Plant response rating, Oat, Wild (wild oat (Avena fatua); [18]): 100
- Plant response rating, Oat, Wild (wild oat (Avena fatua); [19]): 100
- Plant response rating, Oat, Wild (wild oat (Avena fatua); [20]): 100
- Plant response rating, Oat, Wild (wild oat (Avena fatua); [21]): 100
- Plant response rating, Oat, Wild (wild oat (Avena fatua); [22]): 98
- Plant response rating, Oat, Wild (wild oat (Avena fatua); [23]): 98
- Plant response rating, Oat, Wild (wild oat (Avena fatua); [24]): 98
- Plant response rating, Oat, Wild (wild oat (Avena fatua); [25]): 100
- Plant response rating, Foxtail, Green [3, 18]: 95
- Plant response rating, Foxtail, Green [3, 19]: 98
- Plant response rating, Foxtail, Green [3, 20]: 100
- Plant response rating, Foxtail, Green [3, 21]: 100
- Plant response rating, Foxtail, Green [3, 22]: 100
- Plant response rating, Foxtail, Green [3, 23]: 100
- Plant response rating, Foxtail, Green [3, 24]: 100
- Plant response rating, Foxtail, Green [3, 25]: 100
- Plant response rating, Pigweed [4, 18]: 0
- Plant response rating, Pigweed [4, 19]: 10
- Plant response rating, Pigweed [4, 20]: 10
- Plant response rating, Pigweed [4, 21]: 20
- Plant response rating, Pigweed [4, 22]: 0
- Plant response rating, Pigweed [4, 23]: 0
- Plant response rating, Pigweed [4, 24]: 0
- Plant response rating, Pigweed [4, 25]: 15
- Plant response rating, Blackgrass [5, 18]: 100
- Plant response rating, Blackgrass [5, 19]: 100
- Plant response rating, Blackgrass [5, 20]: 100
- Plant response rating, Blackgrass [5, 21]: 100
- Plant response rating, Blackgrass [5, 22]: 85
- Plant response rating, Blackgrass [5, 23]: 90
- Plant response rating, Blackgrass [5, 24]: 90
- Plant response rating, Blackgrass [5, 25]: 100
- Plant response rating, Bluegrass [6, 18]: 0
- Plant response rating, Bluegrass [6, 19]: 15
- Plant response rating, Bluegrass [6, 20]: 15
- Plant response rating, Bluegrass [6, 21]: 20
- Plant response rating, Bluegrass [6, 22]: 0
- Plant response rating, Bluegrass [6, 23]: 20
- Plant response rating, Bluegrass [6, 25]: 30
- Plant response rating, Canarygrass [7, 18]: 65
- Plant response rating, Canarygrass [7, 19]: 100
- Plant response rating, Canarygrass [7, 20]: 100
- Plant response rating, Canarygrass [7, 21]: 100
- Plant response rating, Canarygrass [7, 22]: 15
- Plant response rating, Canarygrass [7, 23]: 75
- Plant response rating, Canarygrass [7, 24]: 98
- Plant response rating, Canarygrass [7, 25]: 100
- Plant response rating, Barley, Spring [8, 18]: 80
- Plant response rating, Barley, Spring [8, 19]: 95
- Plant response rating, Barley, Spring [8, 20]: 95
- Plant response rating, Barley, Spring [8, 21]: 98
- Plant response rating, Barley, Spring [8, 22]: 20
- Plant response rating, Barley, Spring [8, 23]: 30
- Plant response rating, Barley, Spring [8, 24]: 70
- Plant response rating, Barley, Spring [8, 25]: 100
- Plant response rating, Ryegrass, Italian [9, 18]: 98
- Plant response rating, Ryegrass, Italian [9, 19]: 98
- Plant response rating, Ryegrass, Italian [9, 20]: 100
- Plant response rating, Ryegrass, Italian [9, 21]: 100
- Plant response rating, Ryegrass, Italian [9, 22]: 85
- Plant response rating, Ryegrass, Italian [9, 23]: 98
- Plant response rating, Ryegrass, Italian [9, 24]: 100
- Plant response rating, Ryegrass, Italian [9, 25]: 100
- Plant response rating, Wheat, Winter [10, 18]: 90
- Plant response rating, Wheat, Winter [10, 19]: 100
- Plant response rating, Wheat, Winter [10, 20]: 100
- Plant response rating, Wheat, Winter [10, 21]: 100
- Plant response rating, Wheat, Winter [10, 22]: 20
- Plant response rating, Wheat, Winter [10, 23]: 40
- Plant response rating, Wheat, Winter [10, 24]: 100
- Plant response rating, Wheat, Winter [10, 25]: 100
- Plant response rating, Mustard, Wild [11, 18]: 0
- Plant response rating, Mustard, Wild [11, 19]: 25
- Plant response rating, Mustard, Wild [11, 20]: 25
- Plant response rating, Mustard, Wild [11, 21]: 40
- Plant response rating, Mustard, Wild [11, 22]: 0
- Plant response rating, Mustard, Wild [11, 23]: 0
- Plant response rating, Mustard, Wild [11, 24]: 0
- Plant response rating, Mustard, Wild [11, 25]: 0
- Plant response rating, Bromegrass, Downy [12, 18]: 50
- Plant response rating, Bromegrass, Downy [12, 19]: 80
- Plant response rating, Bromegrass, Downy [12, 20]: 98
- Plant response rating, Bromegrass, Downy [12, 21]: 98
- Plant response rating, Bromegrass, Downy [12, 22]: 35
- Plant response rating, Bromegrass, Downy [12, 23]: 65
- Plant response rating, Bromegrass, Downy [12, 24]: 70
- Plant response rating, Bromegrass, Downy [12, 25]: 100
